Reference: patent US20230338356A1, “TREATMENT OF AUTOIMMUNE SKIN DISEASE” (Aslan Pharmaceuticals Pte Ltd, priority 2022, published 2023)

How the values were obtained:
[1] = tested on: Krt14-KitL* (SCF) mice; assay: Vitiligo scoring in vitiligo mouse model; assay type: in vivo; conditions: 6 weeks (30 treatment days)
[2] = tested on: PMEL T cell; assay: Flow cytometry of PMEL T cell counts in tissues of vitiligo mouse model; assay type: in vivo
[3] = tested on: C3H/HeJ mice; assay: Hair coverage in alopecia areata (AA) skin-graft mouse model; assay type: in vivo; conditions: 150 or 300 mg/kg/day oral gavage once daily, week 8 time point (10 weeks after engraftment), vs vehicle
Procedure: The C3H/HeJ mouse strain is known to spontaneously develop alopecia (AA) at a low frequency over a prolonged time frame. Transplantation of AA-affected skin from a C3H/HeJ mouse to unaffected C3H/HeJ recipients will induce the development of AA in nearly 100% of recipients over 4-8 weeks. Accordingly, to produce the AA mouse model, AA-affected C3H/HeJ skin was grafted onto groups of unaffected C3H/HeJ mice. The following treatment groups (n=10 per treatment group) were tested: • 1. Vehicle 0.5% methylcellulose (negative control) • 2. 150 mg/kg/day farudodstat • 3. 300 mg/kg/day farudodstat Treatments were administered once daily by oral gavage starting 2 weeks after engraftment and concluded after 12 weeks (84 days) of treatment. Photographs were taken at baseline, and every 4 weeks until the end of study Ventral hair growth was scored based on the photographs. Any mouse that had >98% hair coverage was classified as ‘no hair loss’.

[4] = tested on: proliferating CD3+ T cells in human hair follicles; assay: CD3/Ki-67 immunofluorescence of cultured human hair follicles after CD3/CD28 activation; assay type: cell-based; conditions: 70 or 140 nM farudodstat + 25 μg/ml CD3/CD28, vs CD3/CD28 alone
Procedure: (§1) Human hair follicle samples were obtained after informed after informed, written patient consent and ethics committee approval (University of Muenster 2015-602-f-S) and the Comite de Bioetica de la Universidad Fernando Pessoa Canarias (03 (2020-06-22)). This study was conducted according to the Declaration of Helsinki principles.
Cryosections of cultured human hair follicles were immunostained, using antibodies against the human CD3 transmembrane protein of T-lymphocytes (THERMOFISHER, Cat. 15-0038-45, clone UCHT1) and Ki-67, which is a marker of proliferation (ABCAM. Cat. ab15580). Fluorescent images were acquired using the Keyence BZ-X810 inverted microscope and CD3 and double positive cells were counted in epithelium and mesenchyme along the entire hair follicle. The number of proliferative CD3+ T-cells is given as a total number of double positive cells per hair follicle.
(§2) Human hair follicles (HF) were cultured on Day 0 in 48-well plates (1 HF per […]) at 37° C. with 5% CO2 in a media William's E media+RPMI (Gibco, Life Technologies) supplemented with 10 ng/ml hydrocortisone (Sigma Aldrich), 10 μg/ml insulin (Sigma Aldrich), 2 mM L-glutamine (Sigma Aldrich), and 1% penicillin/streptomycin mix (Gibco).
On Day 1, anagen VI HFs were selected for further culture. For quality control, only HFs that grew at least 3% from Day 0 to Day 1 were selected for continued experimentation, […]

[5] = tested on: MHC Class I; assay: MHC-I immunostaining of cultured human hair follicles after CD3/CD28 activation; assay type: cell-based; conditions: 70 or 140 nM farudodstat + 25 μg/ml CD3/CD28, vs CD3/CD28 alone
Procedure: as §1
Cryosections of cultured human hair follicles were immunostained, using a monoclonal mouse antibody against human MHC-I (DAKO, Cat. R7000, clone W6/32). Fluorescent images were acquired using the Keyence BZ-X810 inverted microscope and images were analysed using ImageJ software.
as §2
On Day 1, anagen VI HFs were selected for further culture. For quality control, only HFs that grew at least 3% from Day 0 to Day 1 were selected for continued experimentation,
In order to induce hair follicle immune privilege collapse and to activate resident intra/perifollicular immune cells, the hair follicles were pre-treated with CD3/CD28. […]

COc1cccc(-c2cc(F)c(Nc3ncccc3C(=O)O)c(F)c2)c1 [farudodstat, 2-(3,5-difluoro-3′-methoxybiphenyl-4-ylamino) nicotinic acid]
final mean vitiligo score ([1]; 75 mg/kg/day oral gavage, vs vehicle): improvement in vitiligo score compared to the vehicle treated control group | final mean vitiligo score ([1]; 150 mg/kg/day oral gavage, vs vehicle and vs 75 mg/kg/day): greater improvement in vitiligo score compared to the 75 mg/kg/day group | mean PMEL count, 150 mg/kg/day compared to 75 mg/kg/day ([2]; 150 mg/kg/day oral gavage, end of experiment, flow cytometry): greater reduction in mean PMEL count compared to 75 mg/kg/day | mean PMEL T cell count, dermis and epidermis ([2]; 75 and 150 mg/kg/day oral gavage, end of experiment, flow cytometry): reduction in mean Pmel T cell count | mean PMEL count in the spleen ([2]; oral gavage, compared with anti-IFNγ 250 μg twice a week IP): reduction in mean PMEL count in the spleen that was even greater than that observed for anti-IFNγ | mean % hair coverage [3]: slight improvement in % hair coverage compared to the mice treated with vehicle | CD3+ T cell expansion (% of proliferating T-cells in hair follicles) [4]: T cell expansion was reduced | MHC Class I expression levels in hair follicles [5]: decreased MHC Class I expression levels
